Here are results for 13 compounds from patent US9856259B2, “Heterocyclic compounds and uses thereof” (Plexxikon Inc., priority 2014, dated 2018).

Bounds are passed on as bounds.

In one assay the target is T1, BRD4-BD12 (Homo sapiens, UniProt O60885).
T1 construct: dual bromodomains (BRD4-BD12 (1-477), BRD4-BD12 (1-472)); six-His tag (N); made in house; host or cells: E. coli BL21-CodonPlus (DE3)
The experiment in a line: Alphascreen binding assay, BRD4(1 2) H4. The following applies: BRD4 dual bromodomains with acetylated Histone 4 peptide, read-out: Biochemical activity (IC50 μM) BRD4(1 2) H4. As to the method: Binding of compounds of formula (I) with bromodomain 2, 3 4 was assessed using Alphascreen binding assay. The inhibition of the interaction between bromodomain and its acetylated target protein (Filippakopoulos P et al. 2012) was measured quantitatively using recombinant BRD proteins, an acetylated Histone 4 peptide and AlphaScreen™ technology. In absence of inhibition the BRD protein bound to AlphaScreen™ nickel chelate acceptor beads can interact with the acetylated Histone 4 peptide which is immobilized by the AlphaScreen™ Streptavidin coated beads. This interaction brings donor and acceptor beads in proximity. The close proximity allows the singlet oxygen produced by laser excitation of the donor beads to reach the acceptor beads and generate a luminescence signal. BRD inhibitors result in a decrease in the proximity signal through an inhibition of the BRD acetylated peptide interaction.
Recombinant human bromodomains containing the N-terminal bromodomain (BRD2-BD1 (71-194), BRD3-BD1 (24-144) and BRD4-BD1 (44-164)) or dual bromodomains (BRD4-BD12 (1-477), BRD4-BD12 (1-472)) were prepared and purified as described in protein expression and purification session. The peptide is human Histone H41-21K5AcK8AcK12AcK16Ac-Biotin (Anaspec Calif., USA).
Protocol for BRD2, BRD3 and BRD4 assay: All components are prepared in buffer composed of 50 mM HEPES pH 7.5, 100 mM NaCl, 0.01% BSA, 0.01% Triton X-100, 2 mM DTT. 7 μL of Bromodomain protein and 7 μL of peptide are added to wells containing 1 μL of various concentrations of test compounds of formula (I) or DMSO vehicle in an Alphaplate (PerkinElmer Ga., USA) and incubated for 1 hour at room temperature. 4 μL donor and acceptor bead mixture is then added with final concentrations of 7.5 μg/ml. 30 minutes after bead addition, Alpha signal is read on the Envision spectrometer (λEx 680 nm, λEm 520-620 nm). Final concentrations of bromodomain proteins and peptide are as shown below.
All data was normalized to the mean of 16 high and 16 low control wells on each plate. A four parameter curve fit of the following formula was then applied: Y=a+(b−a)/(1+(x/c)^d) Where ‘a’ is the minimum, ‘b’ is the maximum, ‘c’ is the pIC50 and ‘d’ is the Hill slope. Protein Expression and Purification
Recombinant human bromodomains containing the N-terminal bromodomain (BRD2-BD1 (71-194), BRD3-BD1 (24-144) and BRD4-BD1 (44-164)) or dual bromodomains (BRD4-BD12 (1-477), BRD4-BD12 (1-472)) were expressed in E. coli cells (in a modified pET vector) with an N-terminal six-His tag and purified using a combination of both IMAC (Ni-affinity) and size exclusion chromatography steps.
Recombinant BRD proteins were expressed using the E. coli strain BL21-CodonPlus (DE3) (Agilent Technologies CA, USA). Cells were grown in Terrific Broth (TB) media to an OD600 of 1.2 at 37° C. at which temperature was reduced to 25° C., protein was induced with 1.0 mM IPTG for 12-18 hours and harvested by centrifugation at 8000×g for 20 minutes. Cells were re-suspended in 0.1M KPO4 pH 8.0, 250 mM NaCl, 10% Glycerol, 0.75% NP-40, 25 mM Imidazole, 5 mM BME with 0.2 mg/ml Lysosyme, 2.0 mM PMSF, 25 μg/ml DNAse I, incubated on ice for 30 minutes and lyzed with a cell disruptor (MicroFluidics MA, USA). The lysate was clarified by centrifugation at 20,000×g for 2 hours. The protein was captured with Ni-NTA resin (Life Technologies, USA). Contaminating proteins were washed off with 25 mM Tris-HCl pH 8.3, 250 mM NaCl, 12% Glycerol and 50 mM Imidazole. Following 3× wash steps, protein was eluted step wise using a 50 mM HEPES pH 7.5, 500 mM NaCl and 400 mM Imidazole. The protein was further purified using Gel Filtration column 26/600 Superdex 200 (GE Biosciences N.J., USA) in 50 mM HEPES pH 7.5, 250 mM NaCl. The protein was aliquoted and flash-frozen in liquid Nitrogen.

The next assay deals with MV-4-11. The experiment in a line: Oncology cell growth assay, MV-4-11 3 d growth. To be noted: Homo sapiens, MV4-11; MV-4-11 cells, 72 hours, CellTiter Glo; read-out: Cell activity (IC50 μM) MV-4-11 3 d-Growtb. Format: cell-based. On the procedure:
In this study, we test compounds in different cancer cell lines. MV-4-11 and MOLM-13 are AML cell lines harboring a MLL-AF4 and MLL-AF9 translocation, respectively. MM.1S is a multiple myeloma cell line. SK—N-AS, IMR-32 and SK-N-BE(2) are neuroblastoma cell lines. IMR-32 and SK-N-BE(2) cell lines harbor MYCN amplifications.
MV-4-11, MM.1S, IMR-32, SK-N-AS and SK-N-BE(2) were obtained from ATCC (IL, USA) and MOLM-13 were purchased from DSMZ (Braunschweig, German). Cells are cultured as recommended by their sources. For growth inhibition studies 3000 cells are seeded in wells of a 96-well plate in 75 μL of culture media. After several hours, growth media containing compounds of formula (I) are added to the wells. Compound at a maximal concentration of 5 mM was serially diluted 1:3 for a total of 8 point titration with DMSO as a control. A 1 μL aliquot of each dilution point is added to 249 μL growth media and 75 μL is added to each well containing cells, providing 10 μM compound at the maximum concentration point. The final concentration of DMSO in all wells is 0.2%. Cells are incubated for 72 hours, and 25 μL of CellTiter Glo Reagent (Promega Ga., USA) is added to each well. Plates are shaken for approximately 10 minutes and chemiluminescent signal is read on Tecan microplate reader. The measured luminescence correlates directly with cell number.
All data is normalized to the mean of eight DMSO high control wells on each plate. A four parameter curve fit of the following formula was then applied: Y=a+(b−a)/(1+(x/c)^d) Where ‘a’ is the minimum, ‘b’ is the maximum, ‘c’ is the pIC50 and ‘d’ is the Hill slope. […] Myc Reporter Assay
Background: ATP-based viability assays read luminescence as a measure of living cells.

In assay [1] the test system is cancer cell lines / MV-4-11 Myc reporter cell line. The assay can be described thus: Bromodomain cell assays of Example 8 (at least one of them). To be noted: Homo sapiens, MV4-11; at least one of the bromodomain cell assays described in Example 8. Format: cell-based. Summed up:
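Antiproliferation: 3000 cells/well, 8-point 1:3 titration from 10 µM final, 0.2% DMSO, 72 h, CellTiter Glo luminescence. Myc reporter: MV-4-11 with E-box firefly luciferase, 25,000 cells, same titration, 24 h; One-Glo luminescence with CellTiter-Fluo viability; 10 µM JQ1 as low control. pIC50 from four-parameter fit.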

Broadly, the IC50 is the concentration needed to halve the response being measured. As for `Cc1noc(C)c1-c1cnc2c(-c3ccc(C(=O)O)cc3)cn(C(c3ccccc3)c3ccccn3)c2n1` (stereo not drawn) [Compound P-2046, 4-[3-(3,5-dimethylisoxazol-4-yl)-5-[phenyl(2-pyridyl)methyl]pyrrolo[2,3-b]pyrazin-7-yl]benzoic acid], the IC50 is not above 1 µM at BRD4-BD12, not above 1 µM in the assay on MV-4-11 and less than 10 µM in assay [1].
For the compound `COC(=O)Cc1ccc(-c2cn(C(c3ccccc3)c3ccccn3)c3nc(-c4c(C)noc4C)cnc23)cc1` (stereo not drawn) [Compound P-2047, methyl 2-[4-[3-(3,5-dimethylisoxazol-4-yl)-5-[phenyl(2-pyridyl)methyl]pyrrolo[2,3-b]pyrazin-7-yl]phenyl]acetate], the results for the concentration for half-maximal inhibition (IC50) (at BRD4-BD12; in the assay with MV-4-11; in assay [1]) were not above 1 µM, not above 1 µM and less than 10 µM, respectively.
As for `Cc1noc(C)c1-c1cnc2c(-c3ccc(CC(=O)O)cc3)cn(C(c3ccccc3)c3ccccn3)c2n1` (stereo not drawn) [Compound P-2048, 2-[4-[3-(3,5-dimethylisoxazol-4-yl)-5-[phenyl(2-pyridyl)methyl]pyrrolo[2,3-b]pyrazin-7-yl]phenyl]acetic acid], the IC50 was not above 1 µM on BRD4-BD12, not above 1 µM with MV-4-11 and less than 10 µM in assay [1].
For `COC(=O)c1ccc(-c2cn([C@@H](C)c3ccccn3)c3nc(-c4c(C)noc4C)cnc23)cc1` [Compound P-2049, methyl 4-[3-(3,5-dimethylisoxazol-4-yl)-5-[(1S)-1-(2-pyridyl)ethyl]pyrrolo[2,3-b]pyrazin-7-yl]benzoate], the results for the half-maximal inhibitory concentration (IC50) (at BRD4-BD12; in the assay on MV-4-11; in assay [1]) were not above 1 µM, not above 1 µM and less than 10 µM, respectively.
Consider `Cc1noc(C)c1-c1cnc2c(-c3ccc(C(=O)O)cc3)cn([C@@H](C)c3ccccn3)c2n1` [Compound P-2050, 4-[3-(3,5-dimethylisoxazol-4-yl)-5-[(1S)-1-(2-pyridyl)ethyl]pyrrolo[2,3-b]pyrazin-7-yl]benzoic acid], for which the IC50 was not above 1 µM at BRD4-BD12, not above 1 µM in the assay on MV-4-11 and less than 10 µM in assay [1].
`COC(=O)Cc1ccc(-c2cn([C@@H](C)c3ccccn3)c3nc(-c4c(C)noc4C)cnc23)cc1` [Compound P-2051, methyl 2-[4-[3-(3,5-dimethylisoxazol-4-yl)-5-[(1S)-1-(2-pyridyl)ethyl]pyrrolo[2,3-b]pyrazin-7-yl]phenyl]acetate]: the values for the IC50 (at BRD4-BD12; with MV-4-11; in assay [1]) were not above 1 µM, not above 1 µM and less than 10 µM, respectively.
Consider `Cc1noc(C)c1-c1cnc2c(-c3ccc(CC(=O)O)cc3)cn([C@@H](C)c3ccccn3)c2n1` [Compound P-2052, 2-[4-[3-(3,5-dimethylisoxazol-4-yl)-5-[(1S)-1-(2-pyridyl)ethyl]pyrrolo[2,3-b]pyrazin-7-yl]phenyl]acetic acid], for which the results for the IC50 (on BRD4-BD12; with MV-4-11; in assay [1]) were not above 1 µM, not above 1 µM and less than 10 µM, respectively.
Turning to `COC(=O)C1(c2ccc(-c3cn([C@@H](C)c4ccccn4)c4nc(-c5c(C)noc5C)cnc34)cc2)CC1` [Compound P-2053, methyl 1-[4-[3-(3,5-dimethylisoxazol-4-yl)-5-[(1S)-1-(2-pyridyl)ethyl]pyrrolo[2,3-b]pyrazin-7-yl]phenyl]cyclopropanecarboxylate], the IC50 on BRD4-BD12 is not above 1 µM; in the assay with MV-4-11 it was not above 1 µM; in assay [1], less than 10 µM.
With `Cc1noc(C)c1-c1cnc2c(-c3ccc(C4(C(=O)O)CC4)cc3)cn([C@@H](C)c3ccccn3)c2n1` [Compound P-2054, 1-[4-[3-(3,5-dimethylisoxazol-4-yl)-5-[(1S)-1-(2-pyridyl)ethyl]pyrrolo[2,3-b]pyrazin-7-yl]phenyl]cyclopropanecarboxylic acid], the IC50 is not above 1 µM at BRD4-BD12, not above 1 µM in the assay on MV-4-11 and less than 10 µM in assay [1].
`Cc1noc(C)c1-c1cnc2c(-c3ccc(C#N)nc3)cn([C@@H](C)c3ccccn3)c2n1` [Compound P-2055, 5-[3-(3,5-dimethylisoxazol-4-yl)-5-[(1S)-1-(2-pyridyl)ethyl]pyrrolo[2,3-b]pyrazin-7-yl]pyridine-2-carbonitrile]: the 50% inhibitory concentration (IC50) at BRD4-BD12 was not above 1 µM; in the assay with MV-4-11 it was not above 1 µM; in assay [1] it was less than 10 µM.
Regarding `Cc1noc(C)c1-c1cnc2c(I)cn([C@@H](C)c3ccccn3)c2n1` [Compound P-2056, 4-[7-iodo-5-[(1S)-1-(2-pyridyl)ethyl]pyrrolo[2,3-b]pyrazin-3-yl]-3,5-dimethyl-isoxazole], the IC50 on BRD4-BD12 was not above 1 µM; in the assay with MV-4-11, not above 1 µM; in assay [1] it was less than 10 µM.
Turning to `Cc1noc(C)c1-c1cnc2[nH]cc(CC3CCC(F)(F)CC3)c2n1` [Compound P-2077, 4-[7-[(4,4-difluorocyclohexyl)methyl]-5H-pyrrolo[2,3-b]pyrazin-2-yl]-3,5-dimethyl-isoxazole], the IC50 at BRD4-BD12 was 1 to 10 µM; in the assay with MV-4-11 it was 1 to 10 µM; in assay [1], less than 10 µM.
For the compound `Cc1noc(C)c1-c1cnc2c(n1)c(CC1CCC(F)(F)CC1)cn2-c1ccc(C(=O)O)cn1` [Compound P-2078, 6-[7-[(4,4-difluorocyclohexyl)methyl]-2-(3,5-dimethylisoxazol-4-yl)pyrrolo[2,3-b]pyrazin-5-yl]pyridine-3-carboxylic acid], the values for the concentration for half-maximal inhibition (IC50) (on BRD4-BD12; in the assay with MV-4-11; in assay [1]) were not above 1 µM, 1 to 10 µM and less than 10 µM, respectively.
